Reference: ChEMBL document CHEMBL5352412, “Discovery of 1,2-diphenylethene derivatives as human DNA topoisomerase II catalytic inhibitors and antitumor agents” (Eur J Med Chem, 2022)

What was measured:
[1] = target: T1, DNA topoisomerase 2-alpha (Homo sapiens, UniProt P11388); assay: Inhibition of human topoisomerase 2-alpha assessed as reduction in relaxation of pBR322 DNA at 100 uM measured after 30 mins by agarose gel electrophoresis method relative to control
[2] = target: T1, DNA topoisomerase 2-alpha; assay: Inhibition of human topoisomerase 2-alpha assessed as reduction in relaxation of pBR322 DNA at 25 uM measured after 30 mins by agarose gel electrophoresis method relative to control
MDA-MB-231 = assay: Antiproliferative activity against human MDA-MB-231 cells incubated for 72 hrs by CCK8 assay; assay type: functional, cell-based; details: Homo sapiens, MDA-MB-231, 72 h
HepG2 = assay: Antiproliferative activity against human HepG2 cells incubated for 72 hrs by CCK8 assay; assay type: functional, cell-based; details: Homo sapiens, HepG2, 72 h
[3] = target: T1, DNA topoisomerase 2-alpha; assay: Inhibition of human topoisomerase 2-alpha assessed as reduction in relaxation of pBR322 DNA measured after 30 mins by agarose gel electrophoresis method

T1 sequence (P11388 whole entry): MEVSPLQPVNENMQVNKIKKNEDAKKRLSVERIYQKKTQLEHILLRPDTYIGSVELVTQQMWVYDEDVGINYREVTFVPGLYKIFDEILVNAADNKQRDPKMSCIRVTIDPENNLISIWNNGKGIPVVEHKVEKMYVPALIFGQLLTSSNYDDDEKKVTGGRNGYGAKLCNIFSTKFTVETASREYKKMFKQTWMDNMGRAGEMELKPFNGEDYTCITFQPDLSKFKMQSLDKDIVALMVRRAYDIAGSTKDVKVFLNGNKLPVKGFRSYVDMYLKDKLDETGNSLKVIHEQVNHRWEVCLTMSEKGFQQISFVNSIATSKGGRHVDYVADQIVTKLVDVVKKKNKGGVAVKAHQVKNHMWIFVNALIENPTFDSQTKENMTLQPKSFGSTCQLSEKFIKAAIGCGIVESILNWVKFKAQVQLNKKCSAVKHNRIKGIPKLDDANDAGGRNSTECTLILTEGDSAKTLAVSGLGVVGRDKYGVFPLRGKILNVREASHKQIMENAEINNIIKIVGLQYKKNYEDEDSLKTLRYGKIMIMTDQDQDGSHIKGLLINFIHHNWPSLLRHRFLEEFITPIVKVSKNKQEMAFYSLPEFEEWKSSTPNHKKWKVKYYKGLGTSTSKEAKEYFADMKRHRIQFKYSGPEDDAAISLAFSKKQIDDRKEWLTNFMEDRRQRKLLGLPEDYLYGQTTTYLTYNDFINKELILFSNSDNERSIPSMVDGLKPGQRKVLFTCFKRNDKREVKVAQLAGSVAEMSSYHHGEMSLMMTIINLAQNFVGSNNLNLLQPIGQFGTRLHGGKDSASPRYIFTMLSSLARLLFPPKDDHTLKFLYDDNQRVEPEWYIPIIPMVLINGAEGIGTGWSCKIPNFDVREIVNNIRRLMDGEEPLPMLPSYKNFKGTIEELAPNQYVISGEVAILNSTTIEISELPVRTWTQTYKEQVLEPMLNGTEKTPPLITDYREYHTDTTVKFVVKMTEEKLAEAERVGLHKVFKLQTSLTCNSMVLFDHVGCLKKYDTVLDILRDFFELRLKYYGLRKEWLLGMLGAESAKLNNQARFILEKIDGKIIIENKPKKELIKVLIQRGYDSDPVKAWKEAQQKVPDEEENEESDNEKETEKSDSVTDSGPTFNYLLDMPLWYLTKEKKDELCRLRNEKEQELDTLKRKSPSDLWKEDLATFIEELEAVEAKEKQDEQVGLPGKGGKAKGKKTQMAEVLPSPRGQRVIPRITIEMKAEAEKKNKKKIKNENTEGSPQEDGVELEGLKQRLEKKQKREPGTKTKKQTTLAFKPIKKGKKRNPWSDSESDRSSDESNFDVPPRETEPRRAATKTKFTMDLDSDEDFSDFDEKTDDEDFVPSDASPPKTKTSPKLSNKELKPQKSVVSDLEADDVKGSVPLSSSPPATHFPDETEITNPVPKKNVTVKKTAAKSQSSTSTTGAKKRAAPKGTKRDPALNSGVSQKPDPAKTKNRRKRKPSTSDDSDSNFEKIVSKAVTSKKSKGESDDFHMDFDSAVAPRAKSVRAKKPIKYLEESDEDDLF

inhibition [1] [%] | inhibition [2] [%] | IC50 (MDA-MB-231) [µM] | IC50 (HepG2) [µM] | IC50 [3] [µM] | SMILES
2.1 |  |  |  |  | COc1cc(OC)cc(C(=O)Nc2ccc(NC(=O)/C=C/c3ccccc3)cc2)c1
47.8 | 0.1 | 19.9 |  |  | CN(C)C(=O)/C=C/c1ccc(/C=C/c2cc(O)cc(O)c2)cc1
0 |  |  |  |  | COc1ccc2cc(-c3ccc(NC(=O)CCc4ccccc4)cc3)ccc2c1
0.1 |  | 39.5 | 37.4 |  | COc1ccc2cc(-c3ccc(NC(=O)/C=C/c4ccccc4)cc3)cnc2c1
12.5 | 0.4 | 3.8 | 4.6 |  | C/C=C/C(=O)Nc1ccc(/C=C/c2cc(O)cc(O)c2)cc1
98.1 | 61.5 | 24.7 |  |  | O=C(/C=C/c1ccccc1)Nc1ccc(O)c(/C=C/c2cc(O)cc(O)c2)c1
54.5 | 4.1 |  |  |  | O=C(CCc1ccccc1)Nc1ccc(NC(=O)c2cc(O)cc(O)c2)cc1
11.3 |  | 4.2 | 2.8 |  | O=C(/C=C/c1ccccc1)Nc1ccc(CCc2cc(O)cc(O)c2)cc1
 |  | 16.7 |  |  | Oc1ccc2cc(-c3ccc(Cl)cc3Cl)cnc2c1
87.9 | 81.3 | 7.2 | 9.5 |  | Oc1cc(O)cc(/C=C/c2cc(-c3ccccc3)ccc2O)c1
29.8 | 3.9 |  |  |  | NC(=O)/C=C/c1ccc(/C=C/c2cc(O)cc(O)c2)cc1
15.3 | 0.1 |  |  |  | COc1cc(/C=C/c2ccc(NC(=O)/C=C/c3ccccc3)cc2)cc(OC)c1
3.7 |  |  |  |  | COc1cc(OC)cc(C(=O)Nc2ccc(NC(=O)CCc3ccccc3)cc2)c1
9.9 | 0.2 | 21.1 | 32 |  | C/C=C/C(=O)Nc1cc(/C=C/c2cc(O)cc(O)c2)ccc1O
86.8 | 15.2 | 22.6 | 34 |  | Oc1cc(O)cc(/C=C/c2ccc(O)c(-c3ccsc3)c2)c1
52.7 | 0.6 |  |  |  | C/C=C/C(=O)Nc1ccc(O)c(/C=C/c2cc(O)cc(O)c2)c1
0.2 |  | 7.2 | 10.9 |  | COc1cc(/C=C/c2ccc(NC(=O)CCc3ccccc3)cc2)cc(OC)c1
86.3 | 75.4 | 15.4 | 30 |  | Oc1ccc(-c2ccc(O)c(/C=C/c3cc(O)cc(O)c3)c2)cc1
65.9 | 26.8 | 7.8 | 23.7 |  | CCCNC(=O)/C=C/c1ccc(/C=C/c2cc(O)cc(O)c2)cc1

inhibition [1] [%] | inhibition [2] [%] | IC50 (MDA-MB-231) [µM] | IC50 (HepG2) [µM] | IC50 [3] [µM] | SMILES
82.3 | 55.4 |  |  |  | O=C(/C=C/c1ccccc1)Nc1ccc(-c2cnc3cc(O)ccc3c2)cc1
88.4 | 75.2 | 9.5 | 8.2 |  | Oc1cc(O)cc(/C=C/c2cc(-c3ccsc3)ccc2O)c1
84.5 | 7.1 | 16.7 | 30 |  | O=C(/C=C/c1cc(/C=C/c2cc(O)cc(O)c2)ccc1O)N1CCCCC1
0.1 |  |  |  |  | COc1ccc2cc(-c3ccc(NC(=O)/C=C/c4ccccc4)cc3)ccc2c1
 |  | 37.2 |  |  | COc1ccc2nc(-c3ccc(N)cc3)sc2c1
82.9 | 63.2 | 11.3 | 18 |  | Oc1cc(O)cc(/C=C/c2ccc(-c3cccc(O)c3)cc2)c1
67.2 | 27.1 |  | 36.6 |  | O=C(/C=C/c1ccccc1)Nc1ccc(NC(=O)c2cc(O)cc(O)c2)cc1
83.8 | 57.1 | 7.8 | 10.6 |  | Oc1ccc(-c2ccc(/C=C/c3cc(O)cc(O)c3)cc2)cc1
94.5 | 79.5 | 13.6 | 24.3 |  | O=C(/C=C/c1ccccc1)Nc1cc(/C=C/c2cc(O)cc(O)c2)ccc1O
66.1 | 30.4 | 27.5 | 24.5 |  | Oc1cc(O)cc(/C=C/c2ccc(-c3ccoc3)cc2)c1
36.7 | 0 |  |  |  | COc1ccc2nc(-c3ccc(NC(=O)/C=C/c4ccccc4)cc3)sc2c1
29.7 | 2.3 |  |  |  | CNC(=O)/C=C/c1ccc(/C=C/c2cc(O)cc(O)c2)cc1
64 | 17.6 | 39.2 |  |  | Oc1ccc(-c2cc(/C=C/c3cc(O)cc(O)c3)ccc2O)cc1
0.04 |  | 21.8 |  |  | COc1cc(CCc2ccc(NC(=O)/C=C/c3ccccc3)cc2)cc(OC)c1
87.2 | 10.5 | 42.4 |  |  | Oc1cc(O)cc(/C=C/c2ccc(O)c(-c3ccccc3)c2)c1
68.7 | 55.3 | 11.4 | 16.2 |  | O=[N+]([O-])c1cccc(-c2ccc(/C=C/c3cc(O)cc(O)c3)cc2)c1
63.5 | 1.2 |  |  |  | CNC(=O)/C=C/c1ccc(O)c(/C=C/c2cc(O)cc(O)c2)c1
45 | 2.4 |  |  |  | CNC(=O)/C=C/c1cc(/C=C/c2cc(O)cc(O)c2)ccc1O
9.1 |  | 4.6 | 2.9 |  | O=C(CCc1ccccc1)Nc1ccc(CCc2cc(O)cc(O)c2)cc1

inhibition [1] [%] | inhibition [2] [%] | IC50 (MDA-MB-231) [µM] | IC50 (HepG2) [µM] | IC50 [3] [µM] | SMILES
77.4 | 12.6 | 26.6 | 36.8 |  | Oc1cc(O)cc(/C=C/c2ccc(O)c(-c3ccoc3)c2)c1
82.1 | 21.3 | 20.1 | 20.5 | 59.8 | Oc1cc(O)cc(/C=C/c2cc(-c3ccoc3)ccc2O)c1
71.1 | 6.9 | 5.7 | 14 |  | O=C(/C=C/c1ccc(/C=C/c2cc(O)cc(O)c2)cc1)N1CCCCC1
78.5 | 63.2 | 19.1 | 31.9 |  | Oc1cc(O)cc(/C=C/c2ccc(-c3ccsc3)cc2)c1
91.3 | 18.3 | 19.8 |  |  | O=C(/C=C/c1ccc(O)c(/C=C/c2cc(O)cc(O)c2)c1)N1CCCCC1
76.6 | 18.4 |  |  |  | NC(=O)/C=C/c1ccc(O)c(/C=C/c2cc(O)cc(O)c2)c1
90.7 | 79.3 | 31.2 | 29.1 |  | Oc1cc(O)cc(/C=C/c2cc(-c3cccc(O)c3)ccc2O)c1
86.8 | 7.5 | 12.1 | 4 |  | O=C(CCc1ccccc1)Nc1ccc(-c2nc3ccc(O)cc3s2)cc1
72.1 | 34.5 | 42.3 |  |  | Oc1cc(O)cc(/C=C/c2ccc(O)c(-c3cccc(O)c3)c2)c1
81.2 | 12.2 | 10.5 | 18 |  | Oc1cc(O)cc(/C=C/c2ccc(-c3ccccc3)cc2)c1
19.7 | 0 | 21.1 |  |  | COc1ccc2cc(-c3ccc(NC(=O)CCc4ccccc4)cc3)cnc2c1
0 |  |  |  |  | COc1ccc2nc(-c3ccc(NC(=O)CCc4ccccc4)cc3)sc2c1
59.6 | 1.7 |  |  |  | CCCNC(=O)/C=C/c1cc(/C=C/c2cc(O)cc(O)c2)ccc1O
95.5 | 75.4 | 12.6 | 18.6 |  | O=[N+]([O-])c1cccc(-c2ccc(O)c(/C=C/c3cc(O)cc(O)c3)c2)c1
9.7 |  |  |  |  | O=C(CCc1ccccc1)Nc1ccc(-c2cnc3cc(O)ccc3c2)cc1
93.6 | 97.1 | 33.2 |  |  | O=[N+]([O-])c1cccc(-c2cc(/C=C/c3cc(O)cc(O)c3)ccc2O)c1
1.2 |  | 12 | 3.5 |  | COc1cc(CCc2ccc(NC(=O)CCc3ccccc3)cc2)cc(OC)c1
62.5 | 16.4 | 33.9 | 14.5 |  | O=C(CCc1ccccc1)Nc1ccc(/C=C/c2cc(O)cc(O)c2)cc1
87.4 | 43.2 | 15.9 | 5.3 |  | O=C(/C=C/c1ccccc1)Nc1ccc(-c2nc3ccc(O)cc3s2)cc1
